Data: patent US6372243B2, “Low-oxygen fluorocarbon as an agent for ophthalmology” (Pharm pur GmbH, priority 1998, dated 2002)

Tested on: retinal blood vessels
Assay: fluorocarbon inserted into the vitreous area of the rabbit eye, examination for retinal vessel damage
Assay type: in vivo
Settings: 1.2 ml into one eye each of two rabbits after gas compression of the vitreous body; durations of between two days and six weeks
Method: In fluorescence angiography, a narrowing of the vessels appears from the second post-operative day. As time passes, vessel occlusions, a rarefaction of the capillary bed and the development of microaneurisms appear.
This oxygen-lacking perfluorodecalin was then sterile filtered and injected into one eye each of two rabbits, whereby, prior to the injection, the vitreous body was gas compressed in a known manner. After the gas compression, the gas was […] exchanged for 1.2 ml of the deoxygenated perfluorodecalin, so that about two thirds of the vitreous body area, including the area of the retinal blood vessels, was filled with perfluorodecalin.
After durations of between two days and six weeks, the eyes were examined for vessel damage.

FC1(F)C(F)(F)C(F)(F)C2(F)C(F)(F)C(F)(F)C(F)(F)C(F)(F)C2(F)C1(F)F (stereo not shown) [oxygen-lacking perfluorodecalin, perfluorodecalin]
eyes examined for vessel damage, in comparison to the untreated eye: completely normal condition
